In one assay the target is T1, HLA-A*02:06 molecule (Homo sapiens, UniProt P04439, D140Y/D185E/D98H/E176V/E277Q/F33Y/G131W/G231S/I119V/I121R/I166T/I218V/L300P/L318F/N151K/N90K/P208A/P217A/Q86G/Q94H/R138H/R169H/T345S).
T1 construct: expressed in transfected cells; host or cells: RA2.6 cells (mouse TAP-deficient RMAS with HLA-A*02:06 cDNA)
Put plainly: Binding of peptide to HLA-A*02:06 molecule using RA2.6 cells. Here is the method: Measurement of binding ability of a peptide to an HLA-A*02:06 molecule, which is a product of an HLA-A*02:06 gene, was performed using RA2.6 cells (a cell line newly created at Kochi University) obtained by introducing cDNA of the HLA-A*02:06 gene into RMAS, which is a mouse transporter associated with antigen processing (TAP)-deficient cell line.
A fluorescently labeled monoclonal antibody BB7.2 that specifically recognizes a peptide binding type HLA-A*02:06 molecule was added thereto, and the mixture was incubated on ice for 20 minutes to stain the cells.

The next assay concerns the target T2, HLA-A*02:01 molecule (Homo sapiens, UniProt P04439, D140Y/D185E/D98H/E176V/E277Q/G131W/G231S/I119V/I121R/I166T/I218V/L300P/L318F/N151K/N90K/P208A/P217A/Q86G/Q94H/R138H/R169H/T345S).
T2 construct: using a cell line T2 (purchased from ATCC) expressing an HLA-A*02:01 molecule; host or cells: T2 cell line
Put plainly: Binding of peptide to HLA-A*02:01 molecule using cell line T2. Here is the method: Measurement of binding ability of a peptide to an HLA-A*02:01 molecule, which is a product of an HLA-A*02:01 gene, was performed using a cell line T2 (purchased from ATCC) expressing an HLA-A*02:01 molecule.
T2 cells and purified β2m were added to a serial dilution series of a peptide whose binding ability was to be measured, and then the mixture was incubated at 37° C. for four hours. HLA-A*02:01 molecules whose expression level increased in a peptide concentration-dependent manner by this time point were stained using an association-type specific fluorescently labeled monoclonal antibody BB7.2.
Thereafter, the amount of fluorescence per cell was measured with a flow cytometer, and a dissociation constant Kd value was calculated by the method disclosed in the article (Udaka et al., Immunogenetics, 51, 816-828, 2000) by the present inventor.

The next assay concerns the target HLA-A*24:02 molecule (Homo sapiens, UniProt P04439, D101N/D140Y/D185E/E176V/E190D/F33S/G103R/G107R/I119L/I121M/I306V/K335N/L105A/L180Q/L300P/N151K/N90K/Q86E/Q94H/R106L/R138H/R89G/T104I/T345S/V100E/W191G/Y123F). In words: Binding of peptide to HLA-A*24:02 molecule using C1R-A24 cells. On the procedure:
Measurement of binding ability of a peptide to an HLA-A*24:02 molecule, which is a product of an HLA-A*24:02 gene, was performed using C1R-A24 cells expressing an HLA-A*24:02 molecule (Cells created by Professor Masafumi Takiguchi, Kumamoto University, was provided by Assistant Professor Masaki Yasukawa, Ehime University, with permission).
First, the C1R-A24 cells were exposed to acidic conditions at pH 3.3 for 30 seconds to dissociate and remove an endogenous peptide originally binding to an HLA-A*24:02 molecule and light chain β2m commonly associated with an HLA class I molecule. After neutralization, purified β2m was added to the C1R-A24 cells, and the mixture was added to a peptide dilution series and incubated on ice for four hours.
Thereafter, the number of MHC-peps for each C1R-A24 cell (proportional to a fluorescence intensity of the fluorescent antibody) was quantitatively measured using a fluorescence cell analyzer FACScan (Becton-Dickinson).

The mark [1] stands for this setting: Table 2, dissociation constant Kd value (−log Kd value), >−3.0 = no significant binding ability, read-out: Measured value of allele A*02:06 (converted).
Setting [2] is: Table 2, dissociation constant Kd value (−log Kd value), >−3.0 = no significant binding ability, read-out: Measured value of allele A*02:01 (converted).
Where [3] appears, read: Table 2, dissociation constant Kd value (−log Kd value), >−3.0 = no significant binding ability, read-out: Measured value of allele A*24:02 (converted).
The mark [4] stands for this setting: Table 4, Kd value (−log Kd value), smaller than −3 = binding property, read-out: Measured value of allele A*24:02 (converted).
Setting [5] is: Measured value of allele A*24:02, Table 2, dissociation constant Kd value (−log Kd value), >−3.0 = no significant binding ability.

Read-outs that look alike come from different tables or passages of the source. No end group written: not given here.

With GILSDHQQS [compound 74], the Kd on HLA-A*02:06 molecule (setting [1]), on HLA-A*02:01 molecule (setting [2]), on HLA-A*24:02 molecule (setting [3]) and at HLA-A*24:02 molecule (setting [4]) was over 1000 µM throughout.
As for GRVMQIDGV [compound 68], the Kd is over 1000 µM at HLA-A*02:06 molecule (setting [1]), over 1000 µM at HLA-A*02:01 molecule (setting [2]) and 23.4 µM at HLA-A*24:02 molecule (setting [3]).
On to GSPDEFSND [compound 72], for which the Kd at HLA-A*02:06 molecule (setting [1]), on HLA-A*02:01 molecule (setting [2]), at HLA-A*24:02 molecule (setting [3]) and on HLA-A*24:02 molecule (setting [4]) was over 1000 µM each time.
GTHLDAGTV [compound 51]: the Kd on HLA-A*02:06 molecule (setting [1]) is 218 µM; on HLA-A*02:01 molecule (setting [2]), over 1000 µM; at HLA-A*24:02 molecule (setting [3]) it was over 1000 µM; on HLA-A*24:02 molecule (setting [4]), over 1000 µM.
Consider GYITCERPF [compound 65], for which the figures for the Kd at HLA-A*02:06 molecule (setting [1]), at HLA-A*02:01 molecule (setting [2]) and on HLA-A*24:02 molecule (setting [3]) were over 1000 µM, over 1000 µM and 0.301 µM, respectively.
As for GYITLGKPH [compound 80], the Kd on HLA-A*02:06 molecule (setting [1]), at HLA-A*02:01 molecule (setting [2]), on HLA-A*24:02 molecule (setting [3]) and at HLA-A*24:02 molecule (setting [4]) was over 1000 µM throughout.
As for HMAKVIEFL [compound 38], the Kd at HLA-A*02:06 molecule (setting [1]) is over 1000 µM; on HLA-A*02:01 molecule (setting [2]), 2.06 µM; on HLA-A*24:02 molecule (setting [3]), 0.923 µM.
For HMTSSERPF [compound 64] the same measures were over 1000 µM, over 1000 µM and 68.4 µM.
In the case of IALETPVWI [compound 20], the Kd at HLA-A*02:06 molecule was 3.03 µM; on HLA-A*02:01 molecule, 7.77 µM; on HLA-A*24:02 molecule (setting [5]), 3.29 µM.
For IFADVSSST [compound 78], the Kd on HLA-A*02:06 molecule (setting [1]), on HLA-A*02:01 molecule (setting [2]), on HLA-A*24:02 molecule (setting [3]) and at HLA-A*24:02 molecule (setting [4]) was over 1000 µM throughout.
Regarding ILSDHQQSQ [compound 70], the Kd at HLA-A*02:06 molecule (setting [1]), on HLA-A*02:01 molecule (setting [2]), at HLA-A*24:02 molecule (setting [3]) and on HLA-A*24:02 molecule (setting [4]) was over 1000 µM throughout.
For the sequence IQYSSFHNL [compound 21], the Kd on HLA-A*02:06 molecule was 2.51 µM; at HLA-A*02:01 molecule, 5.17 µM; on HLA-A*24:02 molecule (setting [5]) it was 0.294 µM.
Consider ISAYRTCWI [compound 34], for which the results for the Kd on HLA-A*02:06 molecule (setting [1]), on HLA-A*02:01 molecule (setting [2]) and at HLA-A*24:02 molecule (setting [3]) were 729 µM, over 1000 µM and 10 µM, respectively.
In the case of KFLEAFHEV [compound 8], the Kd was 1.56 µM on HLA-A*02:06 molecule (setting [1]), 1.17 µM at HLA-A*02:01 molecule (setting [2]) and 0.133 µM at HLA-A*24:02 molecule (setting [3]).
With LAEEHGATL [compound 61], the Kd is 32 µM on HLA-A*02:06 molecule (setting [1]), over 1000 µM on HLA-A*02:01 molecule (setting [2]), over 1000 µM on HLA-A*24:02 molecule (setting [3]) and over 1000 µM on HLA-A*24:02 molecule (setting [4]).
For the sequence LAITRKSFI [compound 46], the Kd at HLA-A*02:06 molecule (setting [1]) was 911 µM; on HLA-A*02:01 molecule (setting [2]) it was over 1000 µM; on HLA-A*24:02 molecule (setting [3]), 7.61 µM.
On to LHEEHGATL [compound 79], for which the Kd on HLA-A*02:06 molecule (setting [1]), at HLA-A*02:01 molecule (setting [2]), on HLA-A*24:02 molecule (setting [3]) and at HLA-A*24:02 molecule (setting [4]) was over 1000 µM each time.
As for LHITRKSFI [compound 63], the Kd at HLA-A*02:06 molecule (setting [1]) was over 1000 µM; on HLA-A*02:01 molecule (setting [2]), over 1000 µM; at HLA-A*24:02 molecule (setting [3]), 17.5 µM.
Turning to LIEEHGATL [compound 40], the Kd was 15.3 µM at HLA-A*02:06 molecule (setting [1]), 31.9 µM on HLA-A*02:01 molecule (setting [2]), over 1000 µM at HLA-A*24:02 molecule (setting [3]) and over 1000 µM on HLA-A*24:02 molecule (setting [4]).
Regarding LIITRKSFI [compound 29], the Kd at HLA-A*02:06 molecule (setting [1]) is 230 µM; at HLA-A*02:01 molecule (setting [2]), 78.1 µM; on HLA-A*24:02 molecule (setting [3]) it was 2.5 µM.
Take LLITRKSFI [compound 16]: the values for the Kd at HLA-A*02:06 molecule (setting [1]), at HLA-A*02:01 molecule (setting [2]) and at HLA-A*24:02 molecule (setting [3]) were 23.7 µM, 7.39 µM and 0.23 µM, respectively.
For the sequence LLLFSAAAL [compound 1], the Kd on HLA-A*02:06 molecule (setting [1]) is 10.9 µM; on HLA-A*02:01 molecule (setting [2]), 0.881 µM; at HLA-A*24:02 molecule (setting [3]), 11.1 µM.
